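Growth conditions: 96-well plates. Treatment: test compound, 48 hours, 5 concentrations. Analysis: linear interpolation between bracketing concentrations; unreached endpoints set to highest concentration. GI50 = concentration required for 50% inhibition of growth. Definition used: TGI = concentration required for complete inhibition of growth.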
How the values were obtained:
Assay in all cases: growth of human tumour cells (NCI), 48 h; in the data active = GI50 below about 0.43 µM; inactive = the rest
HCT-15 colon = test system: HCT-15 colon
RPMI-8226 leukemia = test system: RPMI-8226 leukemia
A498 renal = test system: A498 renal
NCI/ADR-RES ovarian = test system: NCI/ADR-RES ovarian
MCF7 breast = test system: MCF7 breast
UO-31 renal = test system: UO-31 renal
EKVX NSCLC = test system: EKVX NSCLC
DU-145 prostate = test system: DU-145 prostate
U251 CNS = test system: U251 CNS
UACC-62 melanoma = test system: UACC-62 melanoma
SK-MEL-28 melanoma = test system: SK-MEL-28 melanoma
NCI-H226 lung = test system: NCI-H226 lung
NCI-H522 lung = test system: NCI-H522 lung
SF-268 CNS = test system: SF-268 CNS
SR leukemia = test system: SR leukemia
HL-60(TB) leukemia = test system: HL-60(TB) leukemia
NCI-H23 lung = test system: NCI-H23 lung
SNB-75 CNS = test system: SNB-75 CNS
A549 NSCLC = test system: A549 NSCLC
MDA-MB-468 breast = test system: MDA-MB-468 breast
OVCAR-3 ovarian = test system: OVCAR-3 ovarian
UACC-257 melanoma = test system: UACC-257 melanoma
K-562 leukemia = test system: K-562 leukemia
T-47D breast = test system: T-47D breast
KM12 colon = test system: KM12 colon
LOX IMVI melanoma = test system: LOX IMVI melanoma
CCRF-CEM leukemia = test system: CCRF-CEM leukemia
HS 578T breast = test system: HS 578T breast
PC-3 prostate = test system: PC-3 prostate
M14 melanoma = test system: M14 melanoma
SF-295 CNS = test system: SF-295 CNS
MDA-MB-435 = test system: MDA-MB-435
HOP-92 NSCLC = test system: HOP-92 NSCLC
SW-620 colon = test system: SW-620 colon
HOP-62 NSCLC = test system: HOP-62 NSCLC
HCC-2998 colon = test system: HCC-2998 colon
MALME-3M melanoma = test system: MALME-3M melanoma
OVCAR-4 ovarian = test system: OVCAR-4 ovarian
HCT-116 colon = test system: HCT-116 colon
CAKI-1 renal = test system: CAKI-1 renal
COLO 205 colon = test system: COLO 205 colon
ACHN renal = test system: ACHN renal
NCI-H460 lung = test system: NCI-H460 lung
SK-OV-3 ovarian = test system: SK-OV-3 ovarian
SK-MEL-2 melanoma = test system: SK-MEL-2 melanoma
SNB-19 CNS = test system: SNB-19 CNS
786-0 renal = test system: 786-0 renal
SF-539 CNS = test system: SF-539 CNS
HT29 colon = test system: HT29 colon
TK-10 renal = test system: TK-10 renal
MOLT-4 leukemia = test system: MOLT-4 leukemia
RXF 393 renal = test system: RXF 393 renal
OVCAR-8 ovarian = test system: OVCAR-8 ovarian
SK-MEL-5 melanoma = test system: SK-MEL-5 melanoma
IGROV1 ovarian = test system: IGROV1 ovarian
SN12C renal = test system: SN12C renal
BT-549 breast = test system: BT-549 breast
OVCAR-5 ovarian = test system: OVCAR-5 ovarian
MDA-MB-231 breast = test system: MDA-MB-231 breast

O=C1CCC(N2Cc3cc(CC(=O)Nc4ccc(N5CCCCC5)cc4)ccc3C2=O)C(=O)N1 (centres undefined)
> 100 µM: TGI (HCT-15 colon) | TGI (RPMI-8226 leukemia) | TGI (NCI/ADR-RES ovarian) | TGI (MCF7 breast) | TGI (UO-31 renal) | TGI (EKVX NSCLC) | TGI (DU-145 prostate) | TGI (U251 CNS) | TGI (UACC-62 melanoma) | TGI (SK-MEL-28 melanoma) | TGI (NCI-H522 lung) | TGI (SF-268 CNS) | TGI (SR leukemia) | TGI (NCI-H23 lung) | TGI (A549 NSCLC) | TGI (OVCAR-3 ovarian) | TGI (UACC-257 melanoma) | TGI (K-562 leukemia) | TGI (T-47D breast) | TGI (KM12 colon) | TGI (LOX IMVI melanoma) | TGI (HS 578T breast) | TGI (PC-3 prostate) | TGI (M14 melanoma) | TGI (SF-295 CNS) | TGI (MDA-MB-435) | TGI (HOP-92 NSCLC) | TGI (SW-620 colon) | TGI (HCC-2998 colon) | TGI (OVCAR-4 ovarian) | TGI (HCT-116 colon) | TGI (CAKI-1 renal) | TGI (COLO 205 colon) | TGI (ACHN renal) | TGI (NCI-H460 lung) | TGI (SK-OV-3 ovarian) | TGI (SK-MEL-2 melanoma) | TGI (SNB-19 CNS) | TGI (786-0 renal) | TGI (SF-539 CNS) | TGI (HT29 colon) | TGI (TK-10 renal) | TGI (MOLT-4 leukemia) | TGI (RXF 393 renal) | TGI (OVCAR-8 ovarian) | TGI (SK-MEL-5 melanoma) | TGI (IGROV1 ovarian) | TGI (OVCAR-5 ovarian)
active: GI50 (HCT-15 colon) 0.0368 µM | GI50 (A498 renal) 0.164 µM | GI50 (UO-31 renal) 0.0782 µM | GI50 (NCI-H226 lung) 0.0398 µM | GI50 (HL-60(TB) leukemia) < 0.01 µM | GI50 (SNB-75 CNS) 0.0288 µM | GI50 (MDA-MB-468 breast) < 0.01 µM | GI50 (T-47D breast) < 0.01 µM | GI50 (CCRF-CEM leukemia) < 0.01 µM | GI50 (HS 578T breast) < 0.0166 µM | GI50 (PC-3 prostate) < 0.0108 µM | GI50 (HOP-92 NSCLC) < 0.01 µM | GI50 (SW-620 colon) < 0.0144 µM | GI50 (HOP-62 NSCLC) < 0.01 µM | GI50 (HCC-2998 colon) 0.0174 µM | GI50 (MALME-3M melanoma) < 0.01 µM | GI50 (COLO 205 colon) 0.0118 µM | GI50 (SNB-19 CNS) 0.0594 µM | GI50 (MOLT-4 leukemia) < 0.01 µM | GI50 (OVCAR-8 ovarian) < 0.01 µM | GI50 (IGROV1 ovarian) < 0.0104 µM | GI50 (BT-549 breast) < 0.01 µM | GI50 (OVCAR-5 ovarian) 0.24 µM | GI50 (MDA-MB-231 breast) < 0.01 µM
99.2 µM: TGI (SNB-75 CNS)
< 0.0282 µM: TGI (MDA-MB-468 breast)
23.3 µM: TGI (NCI-H226 lung)
0.927 µM: TGI (BT-549 breast)
> 85.2 µM: TGI (A498 renal)
> 90.8 µM: TGI (SN12C renal)
0.0124 µM: TGI (MALME-3M melanoma)
inactive: GI50 (RPMI-8226 leukemia) 20.1 µM | GI50 (NCI/ADR-RES ovarian) 4.34 µM | GI50 (MCF7 breast) 12.4 µM | GI50 (EKVX NSCLC) > 34.5 µM | GI50 (DU-145 prostate) > 81.6 µM | GI50 (U251 CNS) 46.8 µM | GI50 (UACC-62 melanoma) 36.3 µM | GI50 (SK-MEL-28 melanoma) > 60.4 µM | GI50 (NCI-H522 lung) > 72.9 µM | GI50 (SF-268 CNS) 40.7 µM | GI50 (SR leukemia) > 100 µM | GI50 (NCI-H23 lung) > 100 µM | GI50 (A549 NSCLC) 24.2 µM | GI50 (OVCAR-3 ovarian) 23.2 µM | GI50 (UACC-257 melanoma) > 100 µM | GI50 (K-562 leukemia) > 56.1 µM | GI50 (KM12 colon) 2.37 µM | GI50 (LOX IMVI melanoma) > 100 µM | GI50 (M14 melanoma) 0.432 µM | GI50 (SF-295 CNS) > 96.3 µM | GI50 (MDA-MB-435) > 100 µM | GI50 (OVCAR-4 ovarian) 23.4 µM | GI50 (HCT-116 colon) > 100 µM | GI50 (CAKI-1 renal) 2.06 µM | GI50 (ACHN renal) > 100 µM | GI50 (NCI-H460 lung) > 100 µM | GI50 (SK-OV-3 ovarian) 12.9 µM | GI50 (SK-MEL-2 melanoma) 2.16 µM | GI50 (786-0 renal) 1.43 µM | GI50 (SF-539 CNS) 25.1 µM | GI50 (HT29 colon) 19 µM | GI50 (TK-10 renal) 1.58 µM | GI50 (RXF 393 renal) 9.66 µM | GI50 (SK-MEL-5 melanoma) 1.76 µM | GI50 (SN12C renal) 0.632 µM
